Reference: patent US10689673B2, “Bioconversion process for producing nylon-7, nylon-7,7 and polyesters” (INVISTA NORTH AMERICA S.A.R.L., priority 2011, dated 2020)

Assays:
[1] = target: T1, Clostridium tetanomorphum methylaspartate ammonia lyase (MAL) (Clostridium tetanomorphum, UniProt Q05514); experiment: Biotransformation of beta-methyl aspartate with I5 lyase strain cell extract; assay type: biochemical; conditions: 10 mM substrate, 5 or 20 g/L whole cell equivalent, 30° C., after 1 hour
T1 construct: made in house; host or cells: E. coli BL21 (DE3), pET21-a, cell-free extract

[2] = target: T2, Citrobacter amalonaticus methylaspartate ammonia lyase (MAL) (Citrobacter amalonaticus, UniProt O66145); experiment: Biotransformation of beta-methyl aspartate with I4 lyase strain cell extract; assay type: biochemical; conditions: 10 mM substrate, 5 or 20 g/L whole cell equivalent, 30° C., after 1 hour
T2 construct: made in house; host or cells: E. coli BL21 (DE3), pET21-a, cell-free extract

[3] = system: Aspergillus oryzae methylaspartate ammonia lyase (MAL); conditions: 10 mM substrate, 5 or 20 g/L whole cell equivalent, 30° C., 1, 5 and 18 hours
ACOT3 (formerly PTE-1a) = target: T3, ACOT3 (formerly PTE-1a) (Mus musculus, UniProt Q9QYR7); conditions: cited from earlier work
T3 construct: His tag; host or cells: E. coli
T3 sequence (Q9QYR7 1-432): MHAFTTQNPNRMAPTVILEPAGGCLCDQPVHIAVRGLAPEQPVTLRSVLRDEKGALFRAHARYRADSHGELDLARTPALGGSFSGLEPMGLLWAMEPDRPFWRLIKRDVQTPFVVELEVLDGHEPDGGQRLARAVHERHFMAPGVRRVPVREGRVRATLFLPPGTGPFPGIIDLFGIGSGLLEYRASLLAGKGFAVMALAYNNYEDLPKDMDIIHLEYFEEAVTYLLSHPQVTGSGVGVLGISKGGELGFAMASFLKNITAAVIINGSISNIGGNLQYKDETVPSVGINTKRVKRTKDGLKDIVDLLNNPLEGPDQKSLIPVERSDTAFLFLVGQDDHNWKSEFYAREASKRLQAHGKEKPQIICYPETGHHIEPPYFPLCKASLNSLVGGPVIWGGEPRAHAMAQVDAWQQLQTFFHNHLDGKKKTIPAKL

[4] = target: T4, ACOT4 peroxisomal acyl-CoA thioesterase 4 (Mus musculus, UniProt Q8BWN8); conditions: at concentrations up to 500 μM; cited from earlier work
T4 construct: His tag; host or cells: E. coli
T4 sequence (Q8BWN8 1-421): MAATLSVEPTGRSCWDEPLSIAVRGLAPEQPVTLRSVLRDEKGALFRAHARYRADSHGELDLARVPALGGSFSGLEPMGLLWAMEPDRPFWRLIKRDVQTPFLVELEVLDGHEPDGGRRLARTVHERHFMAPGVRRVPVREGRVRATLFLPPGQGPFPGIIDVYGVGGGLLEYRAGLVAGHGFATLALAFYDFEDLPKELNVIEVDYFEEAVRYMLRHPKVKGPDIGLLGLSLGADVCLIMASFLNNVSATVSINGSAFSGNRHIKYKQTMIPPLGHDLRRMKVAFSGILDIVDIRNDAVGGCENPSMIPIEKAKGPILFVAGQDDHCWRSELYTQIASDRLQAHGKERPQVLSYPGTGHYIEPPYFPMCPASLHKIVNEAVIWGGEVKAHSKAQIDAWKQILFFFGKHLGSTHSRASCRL

ACOT5 (formerly PTE-1c) = target: T5, ACOT5 (formerly PTE-1c) (Mus musculus, UniProt Q6Q2Z6); conditions: cited from earlier work
T5 construct: His tag; host or cells: E. coli
T5 sequence (Q6Q2Z6 1-421): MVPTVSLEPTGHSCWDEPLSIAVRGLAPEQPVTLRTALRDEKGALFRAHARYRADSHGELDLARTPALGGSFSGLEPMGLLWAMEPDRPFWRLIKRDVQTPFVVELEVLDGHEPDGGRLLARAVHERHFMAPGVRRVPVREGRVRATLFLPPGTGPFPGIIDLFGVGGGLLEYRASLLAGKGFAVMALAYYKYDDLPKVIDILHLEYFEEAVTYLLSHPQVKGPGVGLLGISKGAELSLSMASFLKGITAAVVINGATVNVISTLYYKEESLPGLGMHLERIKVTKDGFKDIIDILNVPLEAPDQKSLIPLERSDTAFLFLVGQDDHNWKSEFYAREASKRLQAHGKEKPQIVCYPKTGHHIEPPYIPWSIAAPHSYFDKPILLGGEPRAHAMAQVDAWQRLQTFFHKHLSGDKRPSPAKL

[5] = target: T6, Aminoadipate aminotransferase (Q64602) (Bos taurus, UniProt Q5E9N4); conditions: cited from earlier work
T6 construct: host or cells: bovine kidney

[6] = target: T7, Nocardia sp. carboxylic acid reductase (CAR) (Nocardia iowensis, UniProt Q6RKB1); experiment: Carboxylic acid reductase (CAR) spectrophotometric assay of NADPH consumption; assay type: biochemical
T7 construct: made in house; host or cells: E. coli BL21, cell-free extract
Source text: The conditions for the assay were taken from Applied and Environmental Microbiology 2004, 70, p 1874-1881.

[7] = system: PauA pimeloyl-CoA ligase (EC 6.2.1.14); conditions: substrate of pauA; pimelate = 100%; cited from earlier work
[8] = target: T8, Haemophilus influenzae YciA thioesterase (Haemophilus influenzae, UniProt P44886); experiment: Biotransformation of pimeloyl-CoA to pimelic acid with YciA thioesterase cell free extract; assay type: biochemical; conditions: 1 mM substrate, ~15 g/L whole cell equivalents, pH 7.5, 20° C., after 1 hour
T8 construct: made in house; host or cells: E. coli BL21 (DE3), cell-free extract
Method: Biotransformations were carried out in a final volume of 2 mL. The biotransformations comprised of 1 mM substrate, 200 mM KCl and 50 mM potassium Hepes (pH 7.5). Negative controls comprised of cells harbouring the empty vector The biocatalyst was charged as a cell free extract to give a final concentration of ˜15 g/L whole cell equivalents. The reactions were carried out at ambient temperature (20° C.) in 15 mL falcon tubes with stirring. Each biotransformation was sampled after 1 h, 4 h and 24 h and analysed by HPLC (Agilent 1100) on a Phenomenex Luna C18 250×4.6 mm, 5 micron column. […] The filtrates were analysed by HPLC at 260 nm for the disappearance of pimeloyl-CoA (Rt 12.39 mins) and the formation of CoA (Rt 7.98 minutes), both which absorbs strongly at this wavelength, while pimlic acid was not detectable by UV at 260 nm. Pimelic acid formation was confirmed by LC-MS.

T7 sequence (Q6RKB1 2-1174): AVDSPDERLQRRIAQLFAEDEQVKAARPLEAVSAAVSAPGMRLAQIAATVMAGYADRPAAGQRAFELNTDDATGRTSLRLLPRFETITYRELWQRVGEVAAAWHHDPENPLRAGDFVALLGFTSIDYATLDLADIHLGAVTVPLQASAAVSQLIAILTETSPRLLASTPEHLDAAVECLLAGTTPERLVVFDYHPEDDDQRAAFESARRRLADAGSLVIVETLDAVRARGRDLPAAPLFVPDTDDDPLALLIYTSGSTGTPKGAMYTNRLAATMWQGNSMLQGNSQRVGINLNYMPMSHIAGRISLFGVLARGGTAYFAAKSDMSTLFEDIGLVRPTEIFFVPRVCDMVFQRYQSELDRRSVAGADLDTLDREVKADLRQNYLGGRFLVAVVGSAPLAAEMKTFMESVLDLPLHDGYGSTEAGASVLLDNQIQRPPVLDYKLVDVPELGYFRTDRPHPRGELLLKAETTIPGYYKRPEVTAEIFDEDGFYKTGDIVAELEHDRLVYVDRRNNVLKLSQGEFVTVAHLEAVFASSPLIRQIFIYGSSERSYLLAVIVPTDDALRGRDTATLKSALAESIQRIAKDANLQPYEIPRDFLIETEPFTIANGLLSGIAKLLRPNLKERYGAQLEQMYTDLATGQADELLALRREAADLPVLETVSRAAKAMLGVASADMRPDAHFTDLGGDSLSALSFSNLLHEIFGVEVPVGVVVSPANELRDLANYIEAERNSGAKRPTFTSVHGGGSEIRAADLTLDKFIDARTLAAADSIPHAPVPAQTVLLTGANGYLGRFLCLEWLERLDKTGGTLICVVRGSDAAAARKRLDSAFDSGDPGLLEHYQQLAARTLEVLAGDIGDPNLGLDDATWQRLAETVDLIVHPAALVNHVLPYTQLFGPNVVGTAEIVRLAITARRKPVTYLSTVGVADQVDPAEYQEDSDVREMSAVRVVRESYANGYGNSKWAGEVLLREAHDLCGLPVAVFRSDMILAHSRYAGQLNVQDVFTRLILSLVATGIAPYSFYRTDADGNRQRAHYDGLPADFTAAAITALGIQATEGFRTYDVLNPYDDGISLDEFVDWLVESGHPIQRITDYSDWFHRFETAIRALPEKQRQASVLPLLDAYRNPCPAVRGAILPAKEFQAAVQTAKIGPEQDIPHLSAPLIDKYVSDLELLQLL
T6 sequence (Q5E9N4 30-425, one chain of several): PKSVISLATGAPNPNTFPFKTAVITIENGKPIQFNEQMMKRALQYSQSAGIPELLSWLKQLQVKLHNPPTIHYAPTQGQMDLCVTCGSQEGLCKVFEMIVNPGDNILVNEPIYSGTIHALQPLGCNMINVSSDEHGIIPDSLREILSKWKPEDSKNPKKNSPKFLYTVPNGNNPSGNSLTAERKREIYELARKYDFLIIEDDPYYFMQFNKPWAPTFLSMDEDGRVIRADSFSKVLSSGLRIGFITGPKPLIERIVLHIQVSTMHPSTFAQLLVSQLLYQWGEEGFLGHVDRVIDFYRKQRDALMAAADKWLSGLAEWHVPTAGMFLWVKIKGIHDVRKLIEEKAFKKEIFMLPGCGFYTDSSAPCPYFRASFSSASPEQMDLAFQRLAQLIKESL
T8 sequence (P44886 whole entry): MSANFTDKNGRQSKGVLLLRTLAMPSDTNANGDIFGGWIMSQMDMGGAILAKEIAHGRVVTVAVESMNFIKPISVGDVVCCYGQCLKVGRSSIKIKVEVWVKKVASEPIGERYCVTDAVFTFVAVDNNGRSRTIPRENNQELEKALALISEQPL
T1 sequence (Q05514 whole entry): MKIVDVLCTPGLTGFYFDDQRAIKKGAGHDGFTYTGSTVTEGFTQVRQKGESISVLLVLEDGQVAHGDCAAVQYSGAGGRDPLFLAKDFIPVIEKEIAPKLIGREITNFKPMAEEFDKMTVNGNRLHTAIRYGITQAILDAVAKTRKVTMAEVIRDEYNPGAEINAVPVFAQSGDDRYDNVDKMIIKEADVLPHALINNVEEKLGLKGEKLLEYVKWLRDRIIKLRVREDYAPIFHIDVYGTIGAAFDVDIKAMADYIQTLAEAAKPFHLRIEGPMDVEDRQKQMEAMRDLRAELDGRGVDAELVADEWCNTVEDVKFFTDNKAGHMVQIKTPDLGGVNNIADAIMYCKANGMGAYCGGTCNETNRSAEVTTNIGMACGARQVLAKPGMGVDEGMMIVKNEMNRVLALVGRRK
T2 sequence (O66145 whole entry): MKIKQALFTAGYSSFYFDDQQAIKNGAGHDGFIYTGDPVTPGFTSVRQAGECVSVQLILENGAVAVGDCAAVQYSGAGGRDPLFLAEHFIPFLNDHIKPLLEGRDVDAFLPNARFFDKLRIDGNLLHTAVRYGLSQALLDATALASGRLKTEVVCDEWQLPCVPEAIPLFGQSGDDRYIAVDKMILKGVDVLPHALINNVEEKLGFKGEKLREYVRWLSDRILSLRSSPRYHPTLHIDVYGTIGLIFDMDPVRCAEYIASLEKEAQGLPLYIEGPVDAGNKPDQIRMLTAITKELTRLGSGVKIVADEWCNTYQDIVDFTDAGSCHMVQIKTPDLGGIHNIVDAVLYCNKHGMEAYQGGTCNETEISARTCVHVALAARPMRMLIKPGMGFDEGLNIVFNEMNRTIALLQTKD

C[C@H](C(=O)O)[C@@H](N)C(=O)O (racemic) [DL-threo-beta methyl aspartate]
conversion to mesaconic acid [1]: complete conversion | conversion to mesaconic acid [2]: complete conversion | lyase activity (mesaconic acid formation) [3]: No activity

CC(C)(COP(=O)(O)OP(=O)(O)OC[C@H]1O[C@@H](n2cnc3c(N)ncnc32)[C@H](O)[C@@H]1OP(=O)(O)O)[C@@H](O)C(=O)NCCC(=O)NCCS [CoASH]
inhibition with free CoASH (ACOT3 (formerly PTE-1a)): no inhibition | inhibition of the reaction by CoASH [4]: not inhibited | inhibition with free CoASH (ACOT5 (formerly PTE-1c)): no inhibition

O=C(O)CCCCCC(=O)O [Pimelic acid]
reduction in activity in the presence of pimelic acid [5]: 30% | NADPH consumption (uncorrected) ([6]; 50 mM substrate, rCAR cell free extract 4.3 g/L whole cell equivalents, pH 7.5, ~20 deg C, change in absorbance over time): −0.00096 | NADPH consumption (corrected for background) ([6]; as uncorrected, corrected with negative control (BL21 empty vector) rate): −0.00103 | activity relative to the activity for benzoic acid ([6]; reduction to pimelic acid semialdehyde): > 100% | relative activity [7]: 100%

CC(C)(COP(=O)(O)OP(=O)(O)OC[C@H]1O[C@@H](n2cnc3c(N)ncnc32)[C@H](O)[C@@H]1OP(=O)(O)O)[C@@H](O)C(=O)NCCC(=O)NCCSC(=O)CCCCCC(=O)O [pimeloyl-CoA]
hydrolysis to pimelic acid [8]: Complete hydrolysis
